Active and inactive are the calls of the source. Rule as the data show it, for most assays here: actives have a measured EC50 and inactives only a lower limit.
Tests used:
Streptokinase A = molecular target: T1, Streptokinase A (Streptococcus pyogenes serotype M1, UniProt P10520); experiment: viability-normalized secreted streptokinase activity reduction – plasminogen activation absorbance, OD405, dose response (AID 1914); assay type: functional, Streptococcus pyogenes M1 GAS;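 also: secreted streptokinase activity via plasminogen activation per viability signal from cell pellet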
T1 sequence (P10520 whole entry): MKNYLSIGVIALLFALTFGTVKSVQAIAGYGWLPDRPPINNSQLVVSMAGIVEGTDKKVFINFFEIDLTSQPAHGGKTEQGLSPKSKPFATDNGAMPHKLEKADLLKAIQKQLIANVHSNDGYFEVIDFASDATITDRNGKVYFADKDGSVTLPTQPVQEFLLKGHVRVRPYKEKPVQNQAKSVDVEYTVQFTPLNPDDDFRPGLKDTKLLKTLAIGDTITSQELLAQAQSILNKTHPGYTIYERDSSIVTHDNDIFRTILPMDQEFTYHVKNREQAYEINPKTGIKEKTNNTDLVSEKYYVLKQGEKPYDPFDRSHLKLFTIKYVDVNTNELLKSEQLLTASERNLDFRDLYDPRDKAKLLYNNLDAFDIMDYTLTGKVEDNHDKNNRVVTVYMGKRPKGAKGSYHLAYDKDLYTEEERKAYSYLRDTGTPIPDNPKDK

Streptococcus = experiment: GAS UMAA2166 growth inhibition – luminescence, BacTiterGlo, counter-screen for streptokinase expression inhibitor project, dose response (AID 1915); assay type: functional, organism-based; conditions: read-out: EC50;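 also: potency for reduction of bacterial viability or growth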
[1] = test system: Streptococcus sp. 'group A'; experiment: Streptococcus pyogenes SK(-)GAS viability under kanamycin – luminescence, BacTiterGlo, confirmation, counter-screen for streptokinase expression inhibitor project, dose response (AID 1900); assay type: functional, organism-based
[2] = molecular target: T2, Corticotropin-releasing factor receptor 2/Corticotropin-releasing factor-binding protein (Homo sapiens, UniProt P24387+Q13324); experiment: activators of CRF receptor 2 with binding protein – uHTS hits, confirmation (AID 602473); assay type: functional; conditions: read-out: EC50_Mean
T2 sequence (Q13324 whole entry): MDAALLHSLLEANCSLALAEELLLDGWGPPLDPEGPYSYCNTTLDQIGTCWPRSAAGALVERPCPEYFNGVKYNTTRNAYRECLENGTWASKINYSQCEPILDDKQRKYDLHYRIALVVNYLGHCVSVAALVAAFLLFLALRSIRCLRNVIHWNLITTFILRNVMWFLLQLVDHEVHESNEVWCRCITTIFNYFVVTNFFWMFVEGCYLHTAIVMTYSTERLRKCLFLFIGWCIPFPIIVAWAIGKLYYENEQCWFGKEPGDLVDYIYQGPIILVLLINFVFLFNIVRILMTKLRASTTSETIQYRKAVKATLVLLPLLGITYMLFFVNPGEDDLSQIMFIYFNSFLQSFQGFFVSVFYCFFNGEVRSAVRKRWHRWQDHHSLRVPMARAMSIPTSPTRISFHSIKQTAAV
T2 sequence (P24387 whole entry): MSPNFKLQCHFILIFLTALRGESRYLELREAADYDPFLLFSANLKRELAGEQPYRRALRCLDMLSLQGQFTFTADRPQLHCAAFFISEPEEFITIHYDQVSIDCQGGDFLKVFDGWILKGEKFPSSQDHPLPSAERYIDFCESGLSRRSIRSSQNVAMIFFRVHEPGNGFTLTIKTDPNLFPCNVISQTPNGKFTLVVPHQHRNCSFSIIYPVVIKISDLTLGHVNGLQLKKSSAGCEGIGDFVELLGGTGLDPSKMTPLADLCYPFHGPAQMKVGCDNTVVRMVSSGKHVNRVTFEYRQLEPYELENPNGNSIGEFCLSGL

[3] = molecular target: T3, Replicative DNA helicase DnaB (Mycobacterium tuberculosis, UniProt P9WMR3); experiment: DnaB intein splicing inhibitors, dose response, biochemical, cell-free fluorescence (AID 449749); assay type: functional
T3 sequence (P9WMR3 whole entry): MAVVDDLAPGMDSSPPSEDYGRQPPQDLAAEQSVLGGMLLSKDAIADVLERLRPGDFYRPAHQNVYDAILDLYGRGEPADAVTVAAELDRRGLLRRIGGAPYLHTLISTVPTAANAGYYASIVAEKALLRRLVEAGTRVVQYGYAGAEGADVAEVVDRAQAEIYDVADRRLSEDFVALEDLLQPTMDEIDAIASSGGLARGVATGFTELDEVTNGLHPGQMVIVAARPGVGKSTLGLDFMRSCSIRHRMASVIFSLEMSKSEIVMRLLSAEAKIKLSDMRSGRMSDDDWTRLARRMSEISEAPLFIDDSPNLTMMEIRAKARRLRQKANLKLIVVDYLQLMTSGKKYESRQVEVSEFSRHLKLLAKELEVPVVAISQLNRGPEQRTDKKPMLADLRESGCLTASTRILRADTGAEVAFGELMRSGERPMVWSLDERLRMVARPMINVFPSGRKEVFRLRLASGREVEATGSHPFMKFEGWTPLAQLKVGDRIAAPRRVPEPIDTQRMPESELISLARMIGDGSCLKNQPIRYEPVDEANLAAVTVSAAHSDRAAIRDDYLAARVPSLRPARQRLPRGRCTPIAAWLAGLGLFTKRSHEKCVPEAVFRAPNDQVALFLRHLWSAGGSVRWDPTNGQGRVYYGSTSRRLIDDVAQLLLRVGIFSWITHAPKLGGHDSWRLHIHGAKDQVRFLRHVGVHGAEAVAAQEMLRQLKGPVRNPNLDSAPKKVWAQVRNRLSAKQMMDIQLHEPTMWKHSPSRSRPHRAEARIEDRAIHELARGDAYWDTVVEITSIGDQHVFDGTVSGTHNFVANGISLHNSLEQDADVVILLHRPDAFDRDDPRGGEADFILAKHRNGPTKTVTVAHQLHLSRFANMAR

Protein RecA = molecular target: T4, Protein RecA (Mycobacterium tuberculosis, UniProt P9WHJ3); experiment: Fluorescence Cell-Free Homogeneous Dose Retest to Identify Inhibitors of RecA-Intein Splicing Activity. [Related pubchem assays (depositor defined):AID2097, AID2223, AID489010, AID492950]; assay type: functional
T4 sequence (P9WHJ3 whole entry): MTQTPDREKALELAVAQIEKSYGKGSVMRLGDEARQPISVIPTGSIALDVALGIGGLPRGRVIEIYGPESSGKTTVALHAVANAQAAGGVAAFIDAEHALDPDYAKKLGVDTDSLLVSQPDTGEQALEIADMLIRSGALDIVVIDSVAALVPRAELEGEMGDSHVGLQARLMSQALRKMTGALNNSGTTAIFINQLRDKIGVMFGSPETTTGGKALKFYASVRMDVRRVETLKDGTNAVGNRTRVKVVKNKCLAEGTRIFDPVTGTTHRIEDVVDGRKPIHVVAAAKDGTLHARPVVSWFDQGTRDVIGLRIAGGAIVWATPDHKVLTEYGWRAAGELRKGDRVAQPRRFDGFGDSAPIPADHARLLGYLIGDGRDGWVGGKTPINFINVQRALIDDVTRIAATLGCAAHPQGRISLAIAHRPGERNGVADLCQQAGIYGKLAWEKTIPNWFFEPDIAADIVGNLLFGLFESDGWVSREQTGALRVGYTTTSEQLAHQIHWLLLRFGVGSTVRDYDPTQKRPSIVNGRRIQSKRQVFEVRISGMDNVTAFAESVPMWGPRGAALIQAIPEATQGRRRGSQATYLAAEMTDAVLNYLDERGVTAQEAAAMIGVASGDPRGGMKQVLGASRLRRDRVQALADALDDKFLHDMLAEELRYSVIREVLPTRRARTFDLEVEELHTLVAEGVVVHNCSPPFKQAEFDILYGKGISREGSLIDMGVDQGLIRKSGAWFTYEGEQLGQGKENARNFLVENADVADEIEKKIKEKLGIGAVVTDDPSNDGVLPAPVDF

[4] = NIH-3T3 fibroblast cytotoxicity, dose response, cytotoxicity control, cell-based, fluorescence, Alamar Blue, secondary assay (AID 2327); assay type: functional;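 also: NIH-3T3 mouse fibroblasts cultured with fluconazole at 8 µg/mL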
[5] = fluconazole-exposed Candida albicans growth modulators – fluorescence, retest, confirmation (AID 2467); assay type: functional, cell-based
[6] = molecular target: T5, Heat shock factor protein 1 (Mus musculus, UniProt P38532); experiment: decrease of HSF1-responsive luciferase luminescence – cell-based, NIH3T3, dose retest, confirmation (AID 2382); assay type: functional;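 also: NIH3T3 fibroblasts with HSF1-driven luciferase reporter stressed by proteasome inhibitor MG132; luminescence from HSF1-driven luciferase expression after 8 hours of MG132 stress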
T5 sequence (P38532 whole entry): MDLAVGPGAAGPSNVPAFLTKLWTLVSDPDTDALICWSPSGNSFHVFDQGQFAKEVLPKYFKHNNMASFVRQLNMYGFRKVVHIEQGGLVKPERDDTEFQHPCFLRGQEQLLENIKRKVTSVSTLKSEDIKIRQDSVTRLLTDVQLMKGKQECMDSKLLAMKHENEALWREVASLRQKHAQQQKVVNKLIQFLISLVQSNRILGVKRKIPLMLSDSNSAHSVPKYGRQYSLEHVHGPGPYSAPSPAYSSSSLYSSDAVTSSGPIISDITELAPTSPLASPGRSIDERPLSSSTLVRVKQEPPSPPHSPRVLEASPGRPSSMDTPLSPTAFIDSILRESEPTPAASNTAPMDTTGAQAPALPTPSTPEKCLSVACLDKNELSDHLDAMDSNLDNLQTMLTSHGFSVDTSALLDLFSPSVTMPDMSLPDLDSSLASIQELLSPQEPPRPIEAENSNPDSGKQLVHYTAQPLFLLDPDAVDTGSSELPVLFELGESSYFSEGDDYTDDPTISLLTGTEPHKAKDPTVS

[7] = reduction of Shn3 3'UTR-driven luciferase in osteoblasts – cell-based, Clone20 osteoblasts, firefly luciferase, cherry-picked, dose response (AID 624132); assay type: functional;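 also: firefly luciferase luminescence from reporter carrying the Shn3 3'UTR in osteoblasts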

For `c1ccc(-c2oc3ncnc(NCCCn4ccnc4)c3c2-c2ccccc2)cc1`, the EC50 (Streptokinase A) was > 150 µM (not active), the EC50 (Streptococcus) was > 150 µM (not active) and the EC50 [1] was 23.4 µM (active).

In the case of `Cc1cccc(Cc2cnc(NC(=O)c3ccc(C)o3)s2)c1`, the EC50 (Streptokinase A) is reported as > 150 µM (not active), the EC50 (Streptococcus) is reported as > 150 µM (not active) and the EC50 [1] is reported as 16.6 µM (active).

For `O=C(/C=C/c1ccco1)NC(=S)Nc1ccc(N2CCOCC2)c(Cl)c1`, the EC50 (Streptokinase A) was > 150 µM (not active), the EC50 (Streptococcus) was 54.4 µM (active) and the EC50 [1] was 109 µM (active).

In the case of `CC(=O)c1c(C)c2c(n1CCN(C)C)CCCC2`, the EC50 [2] is reported as 2.74 µM (active).

For `Cc1cc(C)c(-c2cc(NC(=O)COC(=O)c3ccc(CO)cc3)n(-c3ccccc3)n2)cc1C`, the EC50 (Streptokinase A) was 48.4 µM (active), the EC50 (Streptococcus) was 32.4 µM (active) and the EC50 [1] was 5.49 µM (active).

For `CCN(CC)S(=O)(=O)c1ccc(NN=C(C#N)C#N)cc1`, the AC50 [3] was 5.03 µM (active) and the EC50 (Protein RecA) was 15 µM (active).

For `COc1ccc(-c2csc(Nc3ccc(O)cc3)n2)cc1`, the AC50 [3] was 37.2 µM (active) and the EC50 (Protein RecA) was 123 µM (active).

For `COc1ccc(C(=O)NCCN2CCOCC2)c(OC)c1OC`, the EC50 [4] was > 150 µM (inactive) and the EC50 [5] was > 38 µM (not active).

With `O=C(CCS(=O)(=O)c1cccc2nsnc12)N1CCN(C(=O)c2ccco2)CC1` the EC50 [4] was > 160 µM (inactive) and the EC50 [5] was > 38 µM (not active).

With `CC1=NNC(=O)C1C(c1cccc(O)c1)C(C#N)C#N` (configuration not stated) the AC50 [3] was 28.3 µM (active) and the EC50 (Protein RecA) was 12.7 µM (active).

For `Cn1c(-[n+]2c(-c3ccccc3)cc(-c3ccccc3)cc2-c2ccccc2)nc2c([N+](=O)[O-])cccc21`, the AC50 [3] was 15.3 µM (active) and the EC50 (Protein RecA) was 15.3 µM (active).

In the case of `Cc1ccc2c(ccc[n+]2CC(=O)c2ccccc2)c1`, the EC50 [4] is reported as > 150 µM (inactive) and the EC50 [5] is reported as > 38 µM (not active).

For `O=C(Nc1ccc(Cl)c(Cl)c1)N1CC=C(c2ccccc2)CC1`, the EC50 (Streptokinase A) was 11.9 µM (active), the EC50 (Streptococcus) was 21 µM (active) and the EC50 [1] was 9.92 µM (active).

With `Cc1oc(-c2cccs2)nc1CN1CCN(Cc2ccc(F)c(F)c2)C(CCO)C1` (configuration not stated) the EC50 [4] was > 150 µM (inactive) and the EC50 [5] was > 38 µM (not active).

With `O=C(NC1C(=O)NNC1c1ccc(Cl)cc1)c1ccc(F)cc1` (configuration not stated) the AC50 [3] was 13.1 µM (active) and the EC50 (Protein RecA) was 4.94 µM (active).

With `CC(=O)NC(=S)c1c(N)n(Cc2ccccc2)c(=O)n(C)c1=O` the AC50 [3] was > 380 µM (inactive) and the EC50 (Protein RecA) was > 380 µM (inconclusive).

For `CCOc1cc(C(c2c(C)n[nH]c2O)c2c(C)n[nH]c2O)cc(Br)c1OC`, the AC50 [3] was 0.417 µM (active), the EC50 [6] was > 195 µM (not active) and the EC50 (Protein RecA) was 0.231 µM (active).

With `Cc1cc(C(=O)c2ccccc2)c(NC(=O)CCl)s1` the AC50 [3] was 14.2 µM (active) and the EC50 (Protein RecA) was 2.83 µM (active).

In the case of `Cc1cc(NC(=O)CC2CCCC2)n(-c2nc3ccccc3[nH]2)n1`, the EC50 (Streptokinase A) is reported as > 150 µM (not active), the EC50 (Streptococcus) is reported as > 150 µM (not active) and the EC50 [1] is reported as 6.41 µM (active).

For `Cn1c(=O)c(C(=O)COc2ccc(C#N)cc2)c(N)n(Cc2ccccc2)c1=O`, the EC50 [2] was 10.9 µM (active).

For `Cc1cccc(-n2nc(C(=O)c3ccco3)cc(-c3nc4ccccc4[nH]3)c2=N)c1`, the EC50 [4] was > 160 µM (inactive), the EC50 (Streptococcus) was 5.95 µM (active) and the EC50 [5] was > 38 µM (not active). For the same molecule, the EC50 [1] was 2.49 µM (active).

In the case of `O=C(Nc1ccccc1)c1ccccc1NC(=O)C(F)(F)F`, the EC50 [2] is reported as > 53 µM (inactive).

With `COc1ccc2cc(C(=O)NCc3ccccc3)/c(=N/c3ccc(C(=O)O)cc3)oc2c1` the EC50 (Streptokinase A) was > 150 µM (not active), the EC50 (Streptococcus) was 22.4 µM (active) and the EC50 [1] was 10.2 µM (active).

With `COc1ccc(C(=O)NNC(=O)c2cccc(S(=O)(=O)N3CCOCC3)c2)cc1` the AC50 [7] was 23.2 µM (active).

For `Clc1cccc(N/N=C/c2ccncc2)c1`, the EC50 [4] was > 160 µM (inactive) and the EC50 [5] was > 38 µM (not active).

For `C[C@]12CC[C@@H](O)C[C@@H]1CC[C@@H]1[C@@H]2CC[C@]2(C)C(=O)CC[C@@H]12` [ANDROSTERONE], the AC50 [7] was 40.1 µM (active).

— ChEMBL document CHEMBL1201862, “PubChem BioAssay data set” (2004)
